The values below come from publication PMC9068901, “Novel Inhibitors and Activity-Based Probes Targeting Trypsin-Like Serine Proteases” (Frontiers in Chemistry, 2022).

Test [1] has as its target T1, human trypsin (Homo sapiens, UniProt P07477). Kind of test: Determination of inhibitor constants against trypsin (progress curves, Cbz-Gly-Gly-Arg-AMC). In kind it is biochemical. The settings on record: for k3: first-order rate constant; for k3/Ki: second-order rate constant. The protocol: (§1) Recombinant protease activities were assessed using the cognate fluorogenic substrates (final concentration 50 μM) as follows: trypsin (Cbz-Gly-Gly-Arg-AMC), neutrophil elastase (MeO-Suc-Ala-Ala-Pro-Val-AMC) and chymotrypsin (Suc-Ala-Ala-Pro-Phe-AMC). The assay in the presence or absence of protease inhibitors at a range of final concentrations was performed using a standard microtitre plate format. Substrate hydrolysis, at 37°C, was monitored over a 60 min period by measuring the rate of increase in fluorescence (at λex 360 nm, λem 480 nm) using a FLUOstar Optima microplate reader (BMG Labtech).
A broad range of inhibitor concentrations were prepared from a 10 mM stock solution of the five test compounds (NAP851, NAP966, NAP987, NAP884 and NAP858) in N,N-dimethyformamide (DMF). The fluorogenic substrate, Cbz-Gly-Gly-Arg-AMC, was diluted in assay buffer (PBS, pH 7.4) and used at a fixed concentration of 50 μM. All inhibition assays were performed in microtitre plates maintained at 37°C in a final volume of 100 μL. The reaction was initiated by the addition of human trypsin (0.01 μg/well) and the rate of substrate hydrolysis continuously recorded at λex 360 nm, λem 480 nm using a FLUOstar Optima microplate reader (BMG Labtech). The resultant inhibition progress curve for the putative protease inhibitors were analysed according to the kinetic models developed by Tian and Tsou ([Tian and Tsou, 1982]) and Walker and Elmore ([Walker and Elmore, 1984]), for irreversible inhibitors, using GRAFIT (Erithacus Software) as described previously ([Ferguson et al., 2016]).

The test system of the next test is chymotrypsin. The test can be described thus: Off-target fluorogenic substrate assay, chymotrypsin. In kind it is biochemical. The method, then:
as §1

For test [2], the system named is trypsin. Kind of test: Click chemistry labelling of trypsin with rhodamine-azide. The format is binding. The settings on record: trypsin 1 μg. The protocol: (§2) Samples pre-treated with competitive inhibitor (Cbz-Arg^P(OPh)2 for trypsin and Cbz-Val^P(OPh)2 for neutrophil elastase) for 30 min prior to addition of NAP884, were included for comparison. Following treatment with NAP884, DMSO (25% v/v final concentration), rhodamine-X azide (60 µM final concentration), copper (II)-TBTA complex (1 mM final concentration) and freshly prepared sodium ascorbate (1 mM final concentration) were added. The samples were mixed and incubated at room temperature in the dark for 1 h with gentle agitation. Samples were then denatured with SDS-containing reducing treatment buffer (10 min at 95°C), followed by resolution by SDS-PAGE and visualisation under UV light.

Test [3] has as its target T2, neutrophil elastase (Homo sapiens, UniProt P08246).
T2 construct: purchased Calbiochem
T2 sequence (P08246 30-267): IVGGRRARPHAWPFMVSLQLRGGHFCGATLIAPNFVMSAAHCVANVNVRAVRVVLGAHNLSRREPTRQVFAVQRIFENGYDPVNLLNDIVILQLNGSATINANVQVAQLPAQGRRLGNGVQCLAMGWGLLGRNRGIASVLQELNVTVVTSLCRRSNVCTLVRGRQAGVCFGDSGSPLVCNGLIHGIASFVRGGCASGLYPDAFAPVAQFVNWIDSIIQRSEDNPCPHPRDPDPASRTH
The test can be described thus: Off-target fluorogenic substrate assay, neutrophil elastase. The settings on record: 50 μM (highest concentration tested); read-out: inhibition of NE (decrease in activity) relative to controls. The format is biochemical. The method, then: as §1

Test [4] concerns trypsin. Kind of test: Off-target fluorogenic substrate assay, trypsin. In kind it is biochemical. Particulars: across the range of concentrations studied, vs chymotrypsin and NE. The protocol: as §1
The target of test [5] is T2, neutrophil elastase. Kind of test: Click chemistry labelling of neutrophil elastase with rhodamine-azide. In kind it is binding. Particulars: NE 1 μg, 30 min, 37°C. The protocol:
as §2, with “Samples of recombinant protease (trypsin and neutrophil elastase) were treated with alkyne-containing probe NAP884 at a concentration of 50 μM, for 30 min at 37°C. Samples pre-treated” for “Samples pre-treated”

Test [6] deals with trypsin. The test can be described thus: Activity-based probe labelling of trypsin (SDS-PAGE, Western blot, streptavidin-HRP). The settings on record: probe 50 μM, 30 min, 37°C. In kind it is binding. The method, then: Samples of recombinant protease (trypsin, human airway trypsin-like protease (HAT), matriptase, thrombin or neutrophil elastase, as indicated in the relevant figure legends) were treated with putative ABPs at a concentration of 50 μM, for 30 min, at 37°C. A control sample was prepared by treating recombinant protease with solvent control only. A further sample was prepared where Cbz-Arg^P(OPh)2 was added 30 min prior to the addition of the ABP under examination. […] All treated samples were then denatured with SDS-containing reducing treatment buffer (10 min at 95°C), followed by resolution by SDS-PAGE and subjected to Western blotting. Note, only stable covalent bonds between the ABP and protease active site would survive the harsh denaturing conditions involved in the resolution process. Resolved proteins were then transferred on to nitrocellulose membrane and labelled with streptavidin-HRP. The ABP-protease complex was then visualised following treatment with Luminata Forte HRP substrate.

Another test addresses T3, matriptase (Homo sapiens, UniProt Q9Y5Y6).
T3 construct: purchased R and D Systems
T3 sequence (Q9Y5Y6 615-855 limits assumed): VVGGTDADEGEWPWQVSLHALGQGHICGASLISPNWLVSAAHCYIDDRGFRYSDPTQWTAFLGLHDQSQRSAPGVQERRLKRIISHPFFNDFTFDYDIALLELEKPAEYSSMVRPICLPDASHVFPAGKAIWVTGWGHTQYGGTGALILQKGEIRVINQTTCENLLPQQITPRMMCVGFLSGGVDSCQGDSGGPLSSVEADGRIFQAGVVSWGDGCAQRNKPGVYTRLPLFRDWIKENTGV
The arrangement: method as in Reihill et al., 2016. Particulars: in words; ref Reihill et al., 2016; cited from earlier work.

Another test concerns HAT. The arrangement: method as in Reihill et al., 2016. Particulars: in words; ref Reihill et al., 2016; cited from earlier work.
The target of test [7] is T1, human trypsin. The arrangement: method as in PMID 10611275. Particulars: ref [30]; cited from earlier work.
The mark [8] stands for this setting: PBS pH 7.4, 37°C, 50 μM Cbz-Gly-Gly-Arg-AMC, ±S.E.M., three determinations, read-out: Ki.
Setting [9] is: PBS pH 7.4, 37°C, ±S.E.M., three determinations.

In general, Ki refers to a measure of affinity in units of concentration, obtained from inhibition or displacement. For orientation: inhibition means the percentage by which the read-out fell short of the control.

Read-outs that look alike come from different tables or passages of the source. *1 amine or outer side, *2 acyl side, *3 side chain or, on linkers, in order; H or OH if unused. Where a SMILES comes first, the peptide text is derived from it. Side-chain parts run from the residue outwards. [ ]: non-standard residue; d: D form. The star is where a group is joined. Biotin = O=C1N[C@H]2[C@H](CS[C@H]2CCCCC(=O)*)N1; Gly(N-(CH2)3-guanidino) = N=C(N)NCCCNCC(=O)O; Glutaryl = O=C(CCCC(=O)[*:2])[*:1]; X4 = O=C(Oc1c(F)c(F)c(F)c(F)c1F)*; X2 = O=C1CCC(=O)N1OC(=O)*; X3 = C#Cc1cccc(N*)c1; Ahx = NCCCCCC(=O)O; X1 = O=C(n1cncn1)*

Take `N=C(N)NCCCN(CC(=O)NCC(=O)NCC(=O)NCCCCCC(=O)N[C@@H](CCCCNC(=O)CCCC[C@@H]1SC[C@@H]2NC(=O)N[C@@H]21)C(=O)O)C(=O)n1cncn1` [NAP851] (X1-[Gly(N-(CH2)3-guanidino)]GG[Ahx]K(Biotin)-OH; N-terminus assumed): the Ki at human trypsin [1] (setting [8]) is 7560 nM. On human trypsin [1] (setting [9]), the k3 is 0.160 (±0.020) min^−1 and the k3/Ki was 2.46 (±0.858) x 10^4 M^−1 min^−1. The “substrate turnover at prolonged incubation” value on human trypsin [1] (progress curves, 60 min incubation) is on record as “slight increase in fluorescence, due to residual substrate turnover”. Also, the Ki on human trypsin [1] (read-out: Ki) is approximately 7600 nM. At human trypsin [1] (trypsin), the “k3/Ki fold smaller than NAP858” value is approximately 8 fold, the “k3/Ki fold smaller than NAP897/NAP884” value is on record as approximately 4 fold and the “k3/Ki fold smaller than NAP966” value was approximately 6 fold.

Consider `C#Cc1cccc(NC(=O)CCCC(=O)NCCCC[C@H](NC(=O)CCCCCNC(=O)CNC(=O)CNC(=O)CN(CCCNC(=N)N)C(=O)ON2C(=O)CCC2=O)C(=O)O)c1` [NAP884] (X2-[Gly(N-(CH2)3-guanidino)]GG[Ahx]K([Glutaryl-X3])-OH), for which the “inhibitory behaviour against chymotrypsin” value with chymotrypsin (in words) was “similarly discriminating inhibitory behaviour against trypsin compared to chymotrypsin”. Besides, the detection of trypsin entry in the test with trypsin [2] (probe 1 μM) is “not detectable”; with trypsin [2] (probe 10 μM), “enabled the detection of trypsin”; in the test on trypsin [2] (probe 50 μM), “enabled the detection of trypsin”. Also, the inhibition at 50 µM at neutrophil elastase [3] was approximately 50%. The “selectivity of action for trypsin” value with trypsin [4] was “pronounced selectivity of action in inhibiting trypsin”. Further, the “labelling of NE” value on neutrophil elastase [5] is listed as “complete absence of labelling of NE”. Also, at human trypsin [1] (setting [8]), the Ki was 420 nM. Besides, the k3 at human trypsin [1] (setting [9]) was 0.528 (±0.064) min^−1. Moreover, at human trypsin [1] (setting [9]), the k3/Ki was 1.34 (±0.351) x 10^6 M^−1 min^−1.

`N=C(N)NCCCN(CC(=O)NCC(=O)NCC(=O)NCCCCCC(=O)N[C@@H](CCCCNC(=O)CCCC[C@@H]1SC[C@@H]2NC(=O)N[C@@H]21)C(=O)O)C(=O)ON1C(=O)CCC1=O` [NAP897] (X2-[Gly(N-(CH2)3-guanidino)]GG[Ahx]K(Biotin)-OH): in the test on chymotrypsin (50 μM (highest concentration tested)), the “inhibition of chymotrypsin relative to controls” value is on record as less than 10%. The inhibition at 50 µM at neutrophil elastase [3] was less than 10%. In addition, in the test with trypsin [4], the “selectivity of action for trypsin” value is listed as “pronounced selectivity of action in inhibiting trypsin”. For the same compound, in the test on trypsin [6], the labelling of trypsin result was “labelling of a single protein band corresponding to the correct molecular mass of trypsin”. For the same compound, the Ki at human trypsin [1] (setting [8]) was determined as 663 nM. On human trypsin [1] (setting [9]), the k3 is 0.741 (±0.225) min^−1 and the k3/Ki is recorded as 1.35 (±0.376) x 10^6 M^−1 min^−1.

For the compound `N=C(N)NCCCN(CC(=O)NCC(=O)NCC(=O)NCCCCCC(=O)N[C@@H](CCCCNC(=O)CCCC[C@@H]1SC[C@@H]2NC(=O)N[C@@H]21)C(=O)O)C(=O)Oc1c(F)c(F)c(F)c(F)c1F` [NAP966] (X4-[Gly(N-(CH2)3-guanidino)]GG[Ahx]K(Biotin)-OH), the Ki at human trypsin [1] (Ki) is approximately 2100 nM. Also, the Ki on human trypsin [1] (Ki, PBS pH 7.4, 37°C, 50 μM Cbz-Gly-Gly-Arg-AMC, ±S.E.M., three determinations) worked out at 2120 nM. Also, on human trypsin [1] (setting [9]), the k3 was 0.401 (±0.007) min^−1 and the k3/Ki is listed as 1.92 (±0.250) x 10^5 M^−1 min^−1.

For `N=C(N)NCCC[C@H](NC(=O)CCC(=O)NCCCOCCOCCOCCCNC(=O)CCCC[C@@H]1SC[C@@H]2NC(=O)N[C@@H]21)P(=O)(Oc1ccccc1)Oc1ccccc1` [QUB-TL1], the inhibition of matriptase result at matriptase is “potent inhibitor”. Also, the “inhibition of HAT” value in the test with HAT is listed as “potent inhibitor”. Besides, at human trypsin [7], the Ki was 174 nM, the k3 is 0.284 min⁻¹ and the k3/Ki is 27300 M⁻¹ s⁻¹.
